According to publication PMC3973950, “Synthesis of 5-arylidine amino-1,3,4-thiadiazol-2-[(N-substituted benzyol)]sulphonamides endowed with potent antioxidants and anticancer activity induces growth inhibition in HEK293, BT474 and NCI-H226 cells” (Medicinal Chemistry Research, 2013):

Tested on: not listed separately
Experiment: In vitro cytotoxicity by MTT assay, HEK 293
Format: cell-based, human
Settings: human, HEK 293 cells, 0.005 μM, read-out: % cytotoxicity (100 − % cell survival) of HEK 293 cell line
Outline: (§1)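 After 72 h of compound exposure at 37 °C in 5 % CO2, MTT was added for 4 h and the propanol-solubilised formazan was read at 490 nm. Monolayers (~10,000 cells/well, RPMI-1640 plus 10 % newborn calf serum) had been allowed to form for 24 h beforehand.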

SMILES | cytotoxicity at 72 h, 0.005 µM [%]
CC(=O)Nc1ccc(S(=O)(=O)Nc2nnc(S(=O)(=O)NC(=O)c3cccc([N+](=O)[O-])c3)s2)cc1 [Compound 6f] | 39.3

Same assay, conditions: human, HEK 293 cells, 0.015 μM, read-out: % cytotoxicity (100 − % cell survival) of HEK 293 cell line

SMILES | cytotoxicity at 72 h, 0.015 µM [%]
CC(=O)Nc1ccc(S(=O)(=O)Nc2nnc(S(=O)(=O)NC(=O)c3cccc([N+](=O)[O-])c3)s2)cc1 [Compound 6f] | 42.2

Same assay, conditions: human, HEK 293 cells, 0.045 μM, read-out: % cytotoxicity (100 − % cell survival) of HEK 293 cell line

SMILES | cytotoxicity at 72 h, 0.045 µM [%]
CC(=O)Nc1ccc(S(=O)(=O)Nc2nnc(S(=O)(=O)NC(=O)c3cccc([N+](=O)[O-])c3)s2)cc1 [Compound 6f] | 45.4

Same assay, conditions: human, HEK 293 cells, 0.13 μM, read-out: % cytotoxicity (100 − % cell survival) of HEK 293 cell line

SMILES | cytotoxicity at 72 h, 0.13 µM [%]
CC(=O)Nc1ccc(S(=O)(=O)Nc2nnc(S(=O)(=O)NC(=O)c3cccc([N+](=O)[O-])c3)s2)cc1 [Compound 6f] | 47.2

Same assay, conditions: human, HEK 293 cells, 0.41 μM, read-out: % cytotoxicity (100 − % cell survival) of HEK 293 cell line

SMILES | cytotoxicity at 72 h, 0.41 µM [%]
CC(=O)Nc1ccc(S(=O)(=O)Nc2nnc(S(=O)(=O)NC(=O)c3cccc([N+](=O)[O-])c3)s2)cc1 [Compound 6f] | 49.1

Same assay, conditions: human, HEK 293 cells, 1.23 μM, read-out: % cytotoxicity (100 − % cell survival) of HEK 293 cell line

SMILES | cytotoxicity at 72 h, 1.23 µM [%]
CC(=O)Nc1ccc(S(=O)(=O)Nc2nnc(S(=O)(=O)NC(=O)c3cccc([N+](=O)[O-])c3)s2)cc1 [Compound 6f] | 51.2

Same assay, conditions: human, HEK 293 cells, 3.7 μM, read-out: % cytotoxicity (100 − % cell survival) of HEK 293 cell line

SMILES | cytotoxicity at 72 h, 3.7 µM [%]
CC(=O)Nc1ccc(S(=O)(=O)Nc2nnc(S(=O)(=O)NC(=O)c3cccc([N+](=O)[O-])c3)s2)cc1 [Compound 6f] | 54.2

Same assay, conditions: human, HEK 293 cells, 11.11 μM, read-out: % cytotoxicity (100 − % cell survival) of HEK 293 cell line

SMILES | cytotoxicity at 72 h, 11.11 µM [%]
CC(=O)Nc1ccc(S(=O)(=O)Nc2nnc(S(=O)(=O)NC(=O)c3cccc([N+](=O)[O-])c3)s2)cc1 [Compound 6f] | 58.6

Same assay, conditions: human, HEK 293 cells, 33.33 μM, read-out: % cytotoxicity (100 − % cell survival) of HEK 293 cell line

SMILES | cytotoxicity at 72 h, 33.33 µM [%]
CC(=O)Nc1ccc(S(=O)(=O)Nc2nnc(S(=O)(=O)NC(=O)c3cccc([N+](=O)[O-])c3)s2)cc1 [Compound 6f] | 59.3

Same assay, conditions: human, HEK 293 cells, 100 μM, read-out: % cytotoxicity (100 − % cell survival) of HEK 293 cell line

SMILES | cytotoxicity at 72 h, 100 µM [%]
CC(=O)Nc1ccc(S(=O)(=O)Nc2nnc(S(=O)(=O)NC(=O)c3cccc([N+](=O)[O-])c3)s2)cc1 [Compound 6f] | 62.4

Same assay, conditions: human, HEK 293 cells, HEK 293, concentration at which 50 % of the cells are dead, read-out: CTCC50 (cytotoxicity concentration)

SMILES | CC50 (50% cytotoxic concentration) at 72 h [nM]
CC(=O)Nc1ccc(S(=O)(=O)Nc2nnc(S(=O)(=O)NC(=O)c3cccc([N+](=O)[O-])c3)s2)cc1 [Compound 6f] | 1120

Tested on: BT474 (breast cancer cell line)
Experiment: In vitro cytotoxicity by MTT assay, BT474
Format: cell-based
Settings: Homo sapiens, BT-474, 0.005 μM, 72 h, read-out: % cytotoxicity (100 − % cell survival) of BT474 cell line
Outline: as §1

SMILES | cytotoxicity at 0.005 µM [%]
CC(=O)Nc1ccc(S(=O)(=O)Nc2nnc(S(=O)(=O)NC(=O)c3cccc([N+](=O)[O-])c3)s2)cc1 [Compound 6f] | 29.1

Same assay, conditions: Homo sapiens, BT-474, 0.015 μM, 72 h, read-out: % cytotoxicity (100 − % cell survival) of BT474 cell line

SMILES | cytotoxicity at 0.015 µM [%]
CC(=O)Nc1ccc(S(=O)(=O)Nc2nnc(S(=O)(=O)NC(=O)c3cccc([N+](=O)[O-])c3)s2)cc1 [Compound 6f] | 30.1

Same assay, conditions: Homo sapiens, BT-474, 0.045 μM, 72 h, read-out: % cytotoxicity (100 − % cell survival) of BT474 cell line

SMILES | cytotoxicity at 0.045 µM [%]
CC(=O)Nc1ccc(S(=O)(=O)Nc2nnc(S(=O)(=O)NC(=O)c3cccc([N+](=O)[O-])c3)s2)cc1 [Compound 6f] | 32.1

Same assay, conditions: Homo sapiens, BT-474, 0.13 μM, 72 h, read-out: % cytotoxicity (100 − % cell survival) of BT474 cell line

SMILES | cytotoxicity at 0.13 µM [%]
CC(=O)Nc1ccc(S(=O)(=O)Nc2nnc(S(=O)(=O)NC(=O)c3cccc([N+](=O)[O-])c3)s2)cc1 [Compound 6f] | 33.4

Same assay, conditions: Homo sapiens, BT-474, 0.41 μM, 72 h, read-out: % cytotoxicity (100 − % cell survival) of BT474 cell line

SMILES | cytotoxicity at 0.41 µM [%]
CC(=O)Nc1ccc(S(=O)(=O)Nc2nnc(S(=O)(=O)NC(=O)c3cccc([N+](=O)[O-])c3)s2)cc1 [Compound 6f] | 35.8
